This note sets out measurements from patent US20140234988A1, “Methods for Diagnosing and Treating Medical Conditions Associated With Oxidative Stress” (priority 2011, published 2014).

Test [1] has as its target human serum albumin, binding site II (plasma of patients with cirrhosis) (Homo sapiens, UniProt P02768). The note with it: cirrhotic patients vs controls.
Source text: (§1) In blood samples derived from the study population (9 consecutive patients with acute-on-chronic liver failure (ACLF) being evaluated for extracorporeal liver support and 20 patients with cirrhosis who were candidates for liver transplantation), albumin was fractionated by HPLC as previously described (Kawai, K. et al. (2001) Tokai J. Exp. Clin. Med. 26, 93-99) resulting in three protein fractions representing cysteine 34 as free sulfhydryl form (HMA), as mixed disulfide (HNA1), or in a higher oxidation state (HNA2).
(§2) Plasma albumin concentrations were determined by using an automatic clinical chemical analyser (EuroLyser, Eurolyser Diagnostica, Salzburg, Austria).
(§3) Serum samples were diluted with PBS and adjusted to an albumin concentration of 40 μM. Based on the 40 μM sample, a dilution series with final concentrations of 20 μM, 10 μM, and 5 μM albumin (in PBS) was made. Each of these samples (250 μl) was mixed with the same volume of 10 μM DS (Sigma-Aldrich, Vienna, Austria) solution. […] DS was detected by means of determining fluorescence at 482/350 nm using a Hitachi F1050 (Merck) detector. Quantificaton via the peak heights was done using the EZ Chrom Elite chromatography software (VWR, Vienna, Austria). From the straight line obtained by the graph of ln (free DS) vs. albumin, the albumin concentration binding half of the ligand was calculated and given as IC50 (μmol/l).
Test [2] deals with human serum albumin, binding site II (plasma of patients with acute-on-chronic liver failure, ACLF) (Homo sapiens, UniProt P02768). The note with it: ACLF group vs controls.
Sequence of human serum albumin, binding site II (plasma of patients with acute-on-chronic liver failure, ACLF) (P02768 25-609): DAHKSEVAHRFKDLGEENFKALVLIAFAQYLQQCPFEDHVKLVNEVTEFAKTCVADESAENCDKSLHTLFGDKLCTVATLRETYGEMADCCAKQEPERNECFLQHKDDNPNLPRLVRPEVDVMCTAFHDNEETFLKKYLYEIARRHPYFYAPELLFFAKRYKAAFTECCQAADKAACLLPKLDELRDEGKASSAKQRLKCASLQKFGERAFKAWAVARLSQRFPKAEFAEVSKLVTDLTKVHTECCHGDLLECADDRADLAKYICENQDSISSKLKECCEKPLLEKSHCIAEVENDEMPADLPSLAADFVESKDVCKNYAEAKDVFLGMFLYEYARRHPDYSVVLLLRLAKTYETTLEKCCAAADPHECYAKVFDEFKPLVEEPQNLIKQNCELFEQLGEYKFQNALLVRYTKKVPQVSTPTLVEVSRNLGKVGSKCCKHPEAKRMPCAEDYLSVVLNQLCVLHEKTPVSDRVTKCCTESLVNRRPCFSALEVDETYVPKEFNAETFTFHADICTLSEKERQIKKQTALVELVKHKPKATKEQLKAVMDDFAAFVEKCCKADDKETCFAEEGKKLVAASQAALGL
Source text: as §1, §2, §3
Test [3] deals with human serum albumin, binding site II (plasma of patients with sepsis) (Homo sapiens, UniProt P02768). The note with it: septic group vs controls.
Sequence of human serum albumin, binding site II (plasma of patients with sepsis) (P02768 25-609): as above
Procedure: as §2
Serum samples were diluted with PBS and adjusted to an albumin concentration of 40 μM. Based on the 40 μM sample, a dilution series with final concentrations of 20 μM, 10 μM, and 5 μM albumin (in PBS) was made. Each of these samples (250 μl) was mixed with the same volume of 10 μM DS (Sigma-Aldrich, Vienna, Austria) solution. Unbound DS molecules were separated from the plasma components via ultrafiltration (Ultrafree-MC reg. Cellulose 30K, Millipore, Vienna, Austria) at 500 g for 10 min at room temperature. 150 μl of the flow through were put into HPLC vials. As a control, 10 μM DS was diluted with the same volume of Millipore water and ultrafiltered as described. For an external standard curve, a dilution series of DS with Millipore water (10 μM, 5 μM, 2.5 μM, and 1.25 μM) was prepared. 20 μl of the filtrate were then injected to the HPLC system. […] DS was detected by means of determining fluorescence at 482/350 nm using a Hitachi F1050 (Merck) detector. Quantificaton via the peak heights was done using the EZ Chrom Elite chromatography software (VWR, Vienna, Austria). From the straight line obtained by the graph of ln (free DS) vs. albumin, the albumin concentration binding half of the ligand was calculated and given as IC50 (μmol/l). […]

Sequence of human serum albumin, binding site II (plasma of patients with cirrhosis) (P02768 25-609): as above

As for `CN(C)c1cccc2c(S(=O)(=O)N(C)CC(=O)O)cccc12` [dansylsarcosine], in test [1], the “DS binding, compared with controls” value is “no difference in DS binding between controls and cirrhotic patients”. The “IC50-values, compared with controls” value was “IC50-values were increased in the septic and ACLF group” in test [2]; “IC50-values were increased in the septic and ACLF group” in test [3].
